Results from ChEMBL document CHEMBL4000244, “Probing A-form DNA: A fluorescent aminosugar probe and dual recognition by anthraquinone-neomycin conjugates” (Bioorg Med Chem, 2017).

Legend:
[1] = Binding affinity to 5'-GGCCCGCC-3' DNA hairpin assessed as change in fluorescence intensity at 1 uM after 45 mins by fluorescence quenching analysis relative to control
[2] = Binding affinity to 5'-GCGGGCCC-3' DNA hairpin assessed as change in fluorescence intensity at 1 uM after 45 mins by fluorescence quenching analysis relative to control
[3] = Binding affinity to 5'-CGCCCGCG-3' DNA hairpin assessed as change in fluorescence intensity at 1 uM after 45 mins by fluorescence quenching analysis relative to control
[4] = Binding affinity to 5'-CCCGCGCC-3' DNA hairpin assessed as change in fluorescence intensity at 1 uM after 45 mins by fluorescence quenching analysis relative to control
[5] = Binding affinity to 5'-CGCGCGGC-3' DNA hairpin assessed as change in fluorescence intensity at 1 uM after 45 mins by fluorescence quenching analysis relative to control
[6] = Binding affinity to 5'-GGCGCGGG-3' DNA hairpin assessed as change in fluorescence intensity at 1 uM after 45 mins by fluorescence quenching analysis relative to control
[7] = Binding affinity to 5'-CGCCCCGG-3' DNA hairpin assessed as change in fluorescence intensity at 1 uM after 45 mins by fluorescence quenching analysis relative to control
[8] = Binding affinity to 5'-CCGGGGCG-3' DNA hairpin assessed as change in fluorescence intensity at 1 uM after 45 mins by fluorescence quenching analysis relative to control
[9] = Binding affinity to 5'-CGCCGGCG-3' DNA hairpin assessed as change in fluorescence intensity at 1 uM after 45 mins by fluorescence quenching analysis relative to control
[10] = Binding affinity to 5'-CCGCCGCC-3' DNA hairpin assessed as change in fluorescence intensity at 1 uM after 45 mins by fluorescence quenching analysis relative to control
[11] = Binding affinity to 5'-GCCGCCCC-3' DNA hairpin assessed as change in fluorescence intensity at 1 uM after 45 mins by fluorescence quenching analysis relative to control
[12] = Binding affinity to 5'-GCGCGGGG-3' DNA hairpin assessed as change in fluorescence intensity at 1 uM after 45 mins by fluorescence quenching analysis relative to control
[13] = Binding affinity to 5'-GCGGCCGC-3' DNA hairpin assessed as change in fluorescence intensity at 1 uM after 45 mins by fluorescence quenching analysis relative to control
[14] = Binding affinity to 5'-GCCGCGCC-3' DNA hairpin assessed as change in fluorescence intensity at 1 uM after 45 mins by fluorescence quenching analysis relative to control
[15] = Binding affinity to 5'-CGCGGGCG-3' DNA hairpin assessed as change in fluorescence intensity at 1 uM after 45 mins by fluorescence quenching analysis relative to control
[16] = Binding affinity to 5'-GCGCCCCG-3' DNA hairpin assessed as change in fluorescence intensity at 1 uM after 45 mins by fluorescence quenching analysis relative to control
[17] = Binding affinity to 5'-CGGGGGCC-3' DNA hairpin assessed as change in fluorescence intensity at 1 uM after 45 mins by fluorescence quenching analysis relative to control
[18] = Binding affinity to 5'-GGCGGCGG-3' DNA hairpin assessed as change in fluorescence intensity at 1 uM after 45 mins by fluorescence quenching analysis relative to control
[19] = Binding affinity to 5'-GGGGCCCG-3' DNA hairpin assessed as change in fluorescence intensity at 1 uM after 45 mins by fluorescence quenching analysis relative to control
[20] = Binding affinity to 5'-GCGCCGGG-3' DNA hairpin assessed as change in fluorescence intensity at 1 uM after 45 mins by fluorescence quenching analysis relative to control
[21] = Binding affinity to 5'-GCGGGGCG-3' DNA hairpin assessed as change in fluorescence intensity at 1 uM after 45 mins by fluorescence quenching analysis relative to control
[22] = Binding affinity to 5'-GGGCCCGC-3' DNA hairpin assessed as change in fluorescence intensity at 1 uM after 45 mins by fluorescence quenching analysis relative to control
[23] = Binding affinity to 5'-CCCGCCGC-3' DNA hairpin assessed as change in fluorescence intensity at 1 uM after 45 mins by fluorescence quenching analysis relative to control
[24] = Binding affinity to 5'-CCGGGGGG-3' DNA hairpin assessed as change in fluorescence intensity at 1 uM after 45 mins by fluorescence quenching analysis relative to control
[25] = Binding affinity to 5'-CGCCGCCG-3' DNA hairpin assessed as change in fluorescence intensity at 1 uM after 45 mins by fluorescence quenching analysis relative to control
[26] = Binding affinity to 5'-GGCGCCGG-3' DNA hairpin assessed as change in fluorescence intensity at 1 uM after 45 mins by fluorescence quenching analysis relative to control
[27] = Binding affinity to 5'-CCGGCCCC-3' DNA hairpin assessed as change in fluorescence intensity at 1 uM after 45 mins by fluorescence quenching analysis relative to control
[28] = Binding affinity to 5'-GCCGCCGG-3' DNA hairpin assessed as change in fluorescence intensity at 1 uM after 45 mins by fluorescence quenching analysis relative to control
[29] = Binding affinity to 5'-GCCGCGCG-3' DNA hairpin assessed as change in fluorescence intensity at 1 uM after 45 mins by fluorescence quenching analysis relative to control
[30] = Binding affinity to 5'-GGCCCGGC-3' DNA hairpin assessed as change in fluorescence intensity at 1 uM after 45 mins by fluorescence quenching analysis relative to control
[31] = Binding affinity to 5'-GGCCGCCG-3' DNA hairpin assessed as change in fluorescence intensity at 1 uM after 45 mins by fluorescence quenching analysis relative to control
[32] = Binding affinity to 5'-CGCGCGCG-3' DNA hairpin assessed as change in fluorescence intensity at 1 uM after 45 mins by fluorescence quenching analysis relative to control
[33] = Binding affinity to 5'-CCGCCCGG-3' DNA hairpin assessed as change in fluorescence intensity at 1 uM after 45 mins by fluorescence quenching analysis relative to control
[34] = Binding affinity to 5'-CCGGGCCC-3' DNA hairpin assessed as change in fluorescence intensity at 1 uM after 45 mins by fluorescence quenching analysis relative to control
[35] = Binding affinity to 5'-CCCGGCCC-3' DNA hairpin assessed as change in fluorescence intensity at 1 uM after 45 mins by fluorescence quenching analysis relative to control
[36] = Binding affinity to 5'-CGGCGCGC-3' DNA hairpin assessed as change in fluorescence intensity at 1 uM after 45 mins by fluorescence quenching analysis relative to control

NCC1O[C@H](O[C@H]2[C@@H](O)[C@H](O[C@@H]3[C@@H](O)[C@H](N)C[C@H](N)[C@H]3O[C@H]3O[C@H](CN)[C@@H](O)[C@H](O)[C@H]3N)O[C@@H]2CSCCNC(=O)CCSCC(=O)Nc2ccc(-c3c4ccc(=O)cc-4oc4cc(O)ccc34)c(C(=O)O)c2)[C@H](N)[C@@H](O)[C@@H]1O (stereo partly specified)
Activity [1]: 31.2% | Activity [2]: 47.8% | Activity [3]: 45.7% | Activity [4]: 63.4% | Activity [5]: 43.8% | Activity [6]: 46.2% | Activity [7]: 41.9% | Activity [8]: 37.5% | Activity [9]: 50.8% | Activity [10]: 52.2% | Activity [11]: 48.5% | Activity [12]: 43.1% | Activity [13]: 54.5% | Activity [14]: 48.8% | Activity [15]: 47.5% | Activity [16]: 44.1% | Activity [17]: 38.1% | Activity [18]: 46.8% | Activity [19]: 29.7% | Activity [20]: 46.9% | Activity [21]: 45.2% | Activity [22]: 30.6% | Activity [23]: 48.9% | Activity [24]: 45.1% | Activity [25]: 48.1% | Activity [26]: 53.2% | Activity [27]: 39.4% | Activity [28]: 54.5% | Activity [29]: 58.2% | Activity [30]: 37% | Activity [31]: 40.7% | Activity [32]: 43.6% | Activity [33]: 56.8% | Activity [34]: 38.9% | Activity [35]: 40.8% | Activity [36]: 46.2%
